In patent US20090208432A1, “AH Receptor Antagonists” (SYMRISE GmbH & Co., KG, priority 2006, published 2009):

Biological target: T1, AhR (Homo sapiens, UniProt P35869)
T1 construct: endogenous in cells; host or cells: HaCaT keratinocytes
T1 sequence (P35869 11-848): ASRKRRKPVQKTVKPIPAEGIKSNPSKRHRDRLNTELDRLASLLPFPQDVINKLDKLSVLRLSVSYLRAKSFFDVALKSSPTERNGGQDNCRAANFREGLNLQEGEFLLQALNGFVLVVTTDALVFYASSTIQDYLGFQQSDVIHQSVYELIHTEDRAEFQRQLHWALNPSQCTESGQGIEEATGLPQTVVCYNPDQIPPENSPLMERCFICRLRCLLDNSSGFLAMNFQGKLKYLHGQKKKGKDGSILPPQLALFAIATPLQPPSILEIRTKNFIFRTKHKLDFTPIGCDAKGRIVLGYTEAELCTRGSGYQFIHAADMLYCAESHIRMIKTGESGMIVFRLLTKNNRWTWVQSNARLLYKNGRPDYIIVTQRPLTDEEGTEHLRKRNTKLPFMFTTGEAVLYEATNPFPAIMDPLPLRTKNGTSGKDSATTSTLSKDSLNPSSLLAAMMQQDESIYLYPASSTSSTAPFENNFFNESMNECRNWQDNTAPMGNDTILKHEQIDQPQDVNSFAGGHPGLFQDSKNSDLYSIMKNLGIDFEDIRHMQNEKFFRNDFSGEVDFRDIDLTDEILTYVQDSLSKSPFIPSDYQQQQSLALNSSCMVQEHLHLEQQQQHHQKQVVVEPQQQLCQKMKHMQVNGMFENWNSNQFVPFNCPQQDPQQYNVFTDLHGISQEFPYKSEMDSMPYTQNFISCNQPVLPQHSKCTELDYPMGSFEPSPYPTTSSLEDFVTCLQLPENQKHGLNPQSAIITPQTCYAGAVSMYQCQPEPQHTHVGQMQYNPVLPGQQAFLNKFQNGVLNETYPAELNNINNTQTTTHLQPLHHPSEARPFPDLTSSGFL
Assay: Quantification of AhR inhibition via determination of CYP1A1-mRNA in UVB-irradiated HaCaT keratinocytes
Format: cell-based
Conditions: HaCaT cells, 100 J/m^2 UVB, pretreated 1 h before irradiation, RNA after 4 h, relative to control (PBS, 0.1% DMSO, UVB-irradiated)
Excerpt: HaCaT keratinocytes were cultivated in DMEM containing 10% of foetal calf serum. The cells were irradiated with UVB in PBS (phosphate buffered saline). For irradiation with UVB we used a TL20W/12RS lamp, which contains four parallel tubes (Philips, Eindhoven, The Netherlands) and emits the bulk of its energy in the UVB range (290-320 nm). The emission peak of the lamp is at 310 nm. Control cells were subjected to the same treatment but were not irradiated. To inhibit the AhR, the cells were treated with the test substances 1 h prior to irradiation.
HaCaT cells were irradiated with 100 J/m^2 of UVB. Some cells were pretreated with the test substances 1 h prior to irradiation. […] The PCR mix was composed of 1/10 by volume of QuantiTect® SYBR Green PCR Master Mix (Qiagen, Hilden, Germany), 0.5 μmol/l of the appropriate primer, 2 μl of cDNA and DEPC-treated (diethyl pyrocarbonate-treated) H2O in a final volume of 20 μl. […] The PCR conditions were as follows: 40 cycles of 15 sec at 94° C. for denaturing, 25 sec at 60° C. for primer attachment, 30 sec at 72° C. for extension and 2 sec at 72° C. for fluorescence measurement. […] The PCR products were quantified via a fragment-specific standard curve using LightCycler software 3. […]
Quantification of AhR Inhibition Via Determination of CYP1A1-mRNA

inhibition at 350 µM (0.35 mM, read-out: CYP1A1 inhibition in presence of UVB light) [%] | CYP1A1 inhibition in presence of UVB light (0.0001 wt. %) [%] | SMILES
60 |  | Oc1ccc2c(c1)OC[C@H]1c3cc4c(cc3O[C@@H]21)OCO4 [Maackiain]
 | 60 | Oc1ccc2c(c1)OC1c3cc(O)c(O)cc3COC1C2O (centres unmarked) [Peltogynol]
